Experimental data taken from ChEMBL document CHEMBL5226288, “A perspective on medicinal chemistry approaches towards adenomatous polyposis coli and Wnt signal based colorectal cancer inhibitors” (Eur J Med Chem, 2021).

Tests used:
[1] = target: Ubiquitin carboxyl-terminal hydrolase 7 (Homo sapiens, UniProt Q93009); assay: Inhibition of recombinant full length wild type human Flag-tagged USP7 expressed in human HEK293 cells using Ub-AMC as substrate by fluorometric assay
[2] = target: T1, Poly [ADP-ribose] polymerase tankyrase-1 (Homo sapiens, UniProt O95271); assay: Inhibition of TNKS1 (unknown origin)
T1 sequence (O95271 whole entry): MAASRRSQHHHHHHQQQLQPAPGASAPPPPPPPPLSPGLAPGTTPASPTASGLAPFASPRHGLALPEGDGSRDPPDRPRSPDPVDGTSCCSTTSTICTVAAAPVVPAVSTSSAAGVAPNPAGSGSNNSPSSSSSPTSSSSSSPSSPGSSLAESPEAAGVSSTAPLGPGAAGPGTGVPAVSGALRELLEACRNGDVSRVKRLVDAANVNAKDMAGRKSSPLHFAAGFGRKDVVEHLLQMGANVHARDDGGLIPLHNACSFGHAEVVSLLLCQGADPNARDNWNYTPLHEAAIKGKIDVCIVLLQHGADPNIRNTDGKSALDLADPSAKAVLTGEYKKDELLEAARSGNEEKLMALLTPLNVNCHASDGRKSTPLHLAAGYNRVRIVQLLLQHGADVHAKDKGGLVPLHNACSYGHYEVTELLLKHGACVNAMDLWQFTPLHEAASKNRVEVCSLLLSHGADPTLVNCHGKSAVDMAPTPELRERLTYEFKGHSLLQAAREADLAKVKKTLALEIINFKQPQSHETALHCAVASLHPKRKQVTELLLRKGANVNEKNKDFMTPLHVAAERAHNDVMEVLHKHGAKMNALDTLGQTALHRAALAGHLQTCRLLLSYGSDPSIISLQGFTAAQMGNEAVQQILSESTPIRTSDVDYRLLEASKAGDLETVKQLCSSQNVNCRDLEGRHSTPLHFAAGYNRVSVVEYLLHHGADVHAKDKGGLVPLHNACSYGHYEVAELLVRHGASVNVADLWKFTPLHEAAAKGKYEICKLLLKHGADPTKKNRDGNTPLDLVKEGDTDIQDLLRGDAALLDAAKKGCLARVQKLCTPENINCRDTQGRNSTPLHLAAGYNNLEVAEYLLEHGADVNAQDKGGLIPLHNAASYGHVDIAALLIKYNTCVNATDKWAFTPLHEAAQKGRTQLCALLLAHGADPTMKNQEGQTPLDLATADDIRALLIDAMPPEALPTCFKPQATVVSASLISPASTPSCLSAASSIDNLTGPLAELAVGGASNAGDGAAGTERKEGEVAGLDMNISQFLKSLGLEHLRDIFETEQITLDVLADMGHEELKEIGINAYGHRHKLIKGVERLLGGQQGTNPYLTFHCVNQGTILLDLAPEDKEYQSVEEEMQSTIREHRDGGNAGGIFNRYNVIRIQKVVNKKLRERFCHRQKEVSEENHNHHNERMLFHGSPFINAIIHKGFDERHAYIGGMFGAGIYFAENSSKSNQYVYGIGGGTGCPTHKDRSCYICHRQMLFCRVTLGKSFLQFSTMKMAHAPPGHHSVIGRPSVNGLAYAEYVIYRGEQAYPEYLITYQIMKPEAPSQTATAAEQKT

[3] = target: T2, Poly [ADP-ribose] polymerase tankyrase-2 (Homo sapiens, UniProt Q9H2K2); assay: Inhibition of TNKS2 (unknown origin)
T2 sequence (Q9H2K2 whole entry): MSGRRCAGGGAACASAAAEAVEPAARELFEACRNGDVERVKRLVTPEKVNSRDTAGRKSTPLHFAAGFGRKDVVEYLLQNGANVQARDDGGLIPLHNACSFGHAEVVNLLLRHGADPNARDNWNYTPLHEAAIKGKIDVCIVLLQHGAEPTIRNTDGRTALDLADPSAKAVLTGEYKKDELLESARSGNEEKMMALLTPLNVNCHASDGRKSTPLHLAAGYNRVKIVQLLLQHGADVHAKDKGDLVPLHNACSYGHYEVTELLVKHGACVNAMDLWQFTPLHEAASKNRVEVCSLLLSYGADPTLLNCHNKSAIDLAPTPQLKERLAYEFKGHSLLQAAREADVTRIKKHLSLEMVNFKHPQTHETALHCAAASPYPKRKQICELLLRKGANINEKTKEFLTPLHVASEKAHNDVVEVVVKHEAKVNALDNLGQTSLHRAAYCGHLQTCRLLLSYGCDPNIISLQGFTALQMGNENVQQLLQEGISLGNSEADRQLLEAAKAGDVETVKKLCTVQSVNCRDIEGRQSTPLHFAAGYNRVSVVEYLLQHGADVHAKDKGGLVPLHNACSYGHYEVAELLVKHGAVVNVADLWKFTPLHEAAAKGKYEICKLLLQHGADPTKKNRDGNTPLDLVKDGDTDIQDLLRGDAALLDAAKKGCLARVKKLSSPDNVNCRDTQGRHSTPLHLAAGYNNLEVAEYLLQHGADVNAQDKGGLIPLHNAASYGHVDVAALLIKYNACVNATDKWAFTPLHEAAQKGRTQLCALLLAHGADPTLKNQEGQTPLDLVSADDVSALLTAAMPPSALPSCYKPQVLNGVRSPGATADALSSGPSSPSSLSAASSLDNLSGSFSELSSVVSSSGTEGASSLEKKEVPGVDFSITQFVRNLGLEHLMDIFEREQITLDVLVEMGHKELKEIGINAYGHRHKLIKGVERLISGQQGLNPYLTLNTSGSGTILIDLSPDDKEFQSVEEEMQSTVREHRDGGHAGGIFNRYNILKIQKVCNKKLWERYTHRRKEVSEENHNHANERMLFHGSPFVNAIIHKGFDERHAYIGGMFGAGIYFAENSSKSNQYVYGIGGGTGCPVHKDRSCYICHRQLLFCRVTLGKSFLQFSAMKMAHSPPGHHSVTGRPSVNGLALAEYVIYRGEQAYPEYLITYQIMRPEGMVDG

[4] = test system: DLD-1; assay: Anticancer activity against human DLD-1 cells assessed as reduction in cell viability incubated for 48 hrs by MTT assay; format: functional, cell-based; conditions: DLD-1, 48 h
[5] = test system: HCT-116; assay: Anticancer activity against human HCT-116 cells assessed as reduction in cell viability incubated for 48 hrs by MTT assay; format: functional, cell-based; conditions: HCT-116, 48 h
[6] = test system: SW480; assay: Antiproliferative activity against human SW480 cells assessed as reduction in cell viability incubated for 72 hrs by MTT assay; format: functional, cell-based; conditions: SW480, 72 h
[7] = test system: DLD-1; assay: Anticancer activity against human DLD-1 cells assessed as reduction in cell viability; format: functional, cell-based
[8] = test system: SW480; assay: Anticancer activity against human SW480 cells assessed as reduction in cell viability; format: functional, cell-based
[9] = test system: SW480; assay: Antiproliferative activity against human SW480 cells assessed as reduction in cell proliferation; format: functional, cell-based
[10] = test system: DLD-1; assay: Antiproliferative activity against human DLD-1 cells assessed as reduction in cell proliferation; format: functional, cell-based
[11] = test system: DLD-1; assay: Antiproliferative activity against human DLD-1 cells assessed as reduction in cell viability by MTS assay; format: functional, cell-based
[12] = test system: SW480; assay: Antiproliferative activity against human SW480 cells assessed as inhibition of cell growth incubated for 48 hrs by MTS assay; format: functional, cell-based; conditions: SW480, 48 h
[13] = Inhibition of APC/ASEF (unknown origin) protein protein interaction incubated for 2 hrs by fluorescence polarization analysis; design: species or system Homo sapiens
[14] = test system: HCT-116; assay: Antiproliferative activity against human HCT-116 cells assessed as reduction in cell viability incubated for 48 hrs by MTT assay; format: functional, cell-based; conditions: time 48 hrs
[15] = organism: Mus musculus; assay: Anticancer activity against C57BL/6J mouse small intestine organoid assessed as decrease in cell growth and measured after 4 days by qPCR analysis; format: functional; conditions: 96 h
[16] = test system: HCT-116; assay: Anticancer activity against human HCT-116 cells assessed as decrease in cell growth incubated for 72 hrs by tryphan blue staining based cell counter analysis; format: functional; conditions: HCT-116, 72 h
[17] = test system: HCT-116; assay: Anticancer activity against human HCT-116 cells assessed as reduction in cell viability incubated for 24 hrs by MTT assay; format: functional, cell-based; conditions: HCT-116, 24 h
[18] = test system: SW480; assay: Anticancer activity against human SW480 cells assessed as reduction in cell viability incubated for 24 hrs by MTT assay; format: functional, cell-based; conditions: SW480, 24 h

Ubiquitin carboxyl-terminal hydrolase 7, sequence (Q93009 whole entry): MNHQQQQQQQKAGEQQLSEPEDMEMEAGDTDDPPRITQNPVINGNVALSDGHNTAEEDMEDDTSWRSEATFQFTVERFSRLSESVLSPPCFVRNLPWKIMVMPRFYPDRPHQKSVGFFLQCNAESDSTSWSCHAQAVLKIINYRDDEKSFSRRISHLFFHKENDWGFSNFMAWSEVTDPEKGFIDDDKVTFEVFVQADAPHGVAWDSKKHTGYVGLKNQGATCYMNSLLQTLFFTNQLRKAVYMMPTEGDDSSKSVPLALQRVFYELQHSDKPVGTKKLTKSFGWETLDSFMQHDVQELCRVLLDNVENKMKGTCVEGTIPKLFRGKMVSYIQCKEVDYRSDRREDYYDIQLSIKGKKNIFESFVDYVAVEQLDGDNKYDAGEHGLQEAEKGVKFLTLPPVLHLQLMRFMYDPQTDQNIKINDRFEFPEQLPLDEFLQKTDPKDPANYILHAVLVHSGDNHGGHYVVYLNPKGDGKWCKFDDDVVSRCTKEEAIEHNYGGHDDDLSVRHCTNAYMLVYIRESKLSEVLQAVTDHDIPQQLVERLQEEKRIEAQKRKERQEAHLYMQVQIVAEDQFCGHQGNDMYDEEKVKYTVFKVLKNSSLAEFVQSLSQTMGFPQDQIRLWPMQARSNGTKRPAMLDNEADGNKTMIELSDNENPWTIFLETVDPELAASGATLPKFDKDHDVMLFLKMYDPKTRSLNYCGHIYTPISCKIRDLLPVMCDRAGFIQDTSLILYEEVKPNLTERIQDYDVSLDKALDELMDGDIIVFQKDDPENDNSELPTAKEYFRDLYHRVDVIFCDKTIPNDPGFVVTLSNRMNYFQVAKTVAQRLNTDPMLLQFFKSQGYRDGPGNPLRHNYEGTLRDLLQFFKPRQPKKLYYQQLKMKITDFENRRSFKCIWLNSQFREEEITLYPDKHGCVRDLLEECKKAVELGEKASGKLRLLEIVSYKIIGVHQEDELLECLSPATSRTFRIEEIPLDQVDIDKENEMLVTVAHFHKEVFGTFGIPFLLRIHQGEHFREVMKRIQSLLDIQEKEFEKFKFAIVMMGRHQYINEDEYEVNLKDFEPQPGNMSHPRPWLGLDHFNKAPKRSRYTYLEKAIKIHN

In the case of C=C1C(=O)O[C@@H]2[C@H]3O[C@]3(C)CC/C=C(\C)CC[C@@H]12, the IC50 [1] is reported as 6.58 µM.

COc1ccc(C2(CNC(=O)c3ccc(NC(=O)c4ccco4)cc3)CCOCC2)cc1 showed an IC50 [2] of 1.9 µM and an IC50 [3] of 0.85 µM.

CCCCCCCCCCCCCC(C(=O)O)C(O)(CC(=O)OC)C(=O)O (centres undefined) gave an IC50 [4] of 100 µM and an IC50 [5] of 100 µM.

C=C1C(=O)[C@]23CC[C@H]1C[C@H]2[C@@]12CCC[C@@](C)(COC1=O)[C@H]2C[C@H]3O gave an IC50 [6] of 1.7 µM.

For S=C=NCCc1ccccc1 [PHENETHYLISOTHIOCYANATE], the IC50 [7] was 54.6 µM and the IC50 [8] was 35.6 µM.

O=C(O)c1ccc(-n2nc(-c3ccccc3O)nc2-c2ccccc2O)cc1 [DEFERASIROX] gave an IC50 [9] of 3.9 µM and an IC50 [10] of 3.4 µM.

For O=c1c(-c2ccc(O)cc2)coc2cc(O)cc(O)c12 [GENISTEIN], the IC50 [11] was 50 µM.

Compound C=C1C(=O)[C@@]23[C@H](O)C[C@@H]4C(C)(C)CC[C@H](O)[C@@]4(COC(C)=O)[C@@H]2CC[C@H]1[C@H]3O has an IC50 [12] of 16.8 µM.

Compound COc1cccc(C2=NN(c3ccc(C(=O)Nc4cc(C(F)(F)F)cc(C(F)(F)F)c4)cc3)C(c3ccc4c(ccn4C)c3)C2)c1 (centres undefined) has an IC50 [13] of 1.02 µM and an IC50 [14] of 1.37 µM.

For NS(=O)(=O)c1ccc(NC(=S)N2CCN(C/C=C/c3ccccc3)CC2)cc1, the IC50 [7] was 0.018 µM.

Work on CS(=O)(=O)c1ccccc1N1CCN(c2nc(O)c3c(n2)CCSC3)CC1 yielded an IC50 [15] of 0.11 µM.

Compound C=C1C(=O)[C@]23C[C@H]1CCC2[C@@]1(C)C([C@@H](O)[C@@H]3O)[C@](C)(C(=O)O)CC[C@@H]1O (some centres undefined) has an IC50 [16] of 4.07 µM.

Compound CC(C)(C)[Si](OC[C@@]1(C)C2CC[C@@]3(CO3)[C@@H](C/C=C3/C(=O)OC[C@H]3O)[C@]2(C)CC[C@H]1O)(c1ccccc1)c1ccccc1 (some centres undefined) has an IC50 [17] of 18.2 µM and an IC50 [18] of 16.1 µM.
